Measurements as given in PubChem BioAssay AID330 (DTP/NCI, 2004).
“And” between values parts separate entries of the source, which are not always exact repeats. Equal values may be shown once. Inconclusive results and toxic doses are left out. Rule for the calls: active = survival T/C of 150% or more; inactive = T/C below 125% in these data.

Tested on: P388 leukemia ip, CD2F1 mice, survival T/C
Test: NCI In Vivo Anticancer Drug Screen. Data for tumor model P388 Leukemia (intraperitoneal) in CD2F1 (CDF1) mice
Details: endpoint: median survival time, higher = longer survival
Procedure, shortened: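 Mice carrying the transplanted tumor received test compound or vehicle. Survival was recorded in each group, and the value is the treated-group measurement divided by that of the vehicle-treated control group.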

[1] = dose: 50.0 mg/kg/injection, schedule: Q01DX005 (ip), vehicle: saline with Tween-80
[2] = dose: 200.0 mg/kg/injection, schedule: Q01DX005 (ip), vehicle: saline with Tween-80
[3] = dose: 200.0 mg/kg/injection, schedule: Q04DX002 (ip), vehicle: saline with Tween-80
[4] = dose: 400.0 mg/kg/injection, schedule: Q04DX002 (ip), vehicle: saline with Tween-80
[5] = dose: 50.0 mg/kg/injection, schedule: Q01DX005 (ip), vehicle: Klucel (hydroxypropylcellulose) (HPC)
[6] = dose: 100.0 mg/kg/injection, schedule: Q01DX005 (ip), vehicle: Klucel (hydroxypropylcellulose) (HPC)
[7] = dose: 200.0 mg/kg/injection, schedule: Q01DX005 (ip), vehicle: Klucel (hydroxypropylcellulose) (HPC)
[8] = dose: 100.0 mg/kg/injection, schedule: Q01DX005 (ip), vehicle: saline with Tween-80
[9] = dose: 100.0 mg/kg/injection, schedule: Q04DX002 (ip), vehicle: saline
[10] = dose: 200.0 mg/kg/injection, schedule: Q04DX002 (ip), vehicle: saline
[11] = dose: 400.0 mg/kg/injection, schedule: Q04DX002 (ip), vehicle: saline
[12] = dose: 50.0 mg/kg/injection, schedule: Q01DX009 (ip), vehicle: saline with Tween-80
[13] = dose: 60.0 mg/kg/injection, schedule: Q01DX005 (ip), vehicle: saline with Tween-80
[14] = dose: 120.0 mg/kg/injection, schedule: Q01DX005 (ip), vehicle: saline with Tween-80
[15] = dose: 240.0 mg/kg/injection, schedule: Q01DX005 (ip), vehicle: saline with Tween-80

Measured: T/C

N#CC1=CC2C3C(=O)N(c4ccccc4)C(=O)C3C1N(Cc1ccccc1)C2c1ccccc1 (stereo not given)
inactive: dose: 12.5 mg/kg/injection, schedule: Q01DX005 (ip), vehicle: saline with Tween-80 95 % of control | dose: 12.5 mg/kg/injection, schedule: Q04DX002 (ip), vehicle: saline with Tween-80 102 % of control | dose: 25.0 mg/kg/injection, schedule: Q01DX005 (ip), vehicle: saline with Tween-80 91 % of control | dose: 25.0 mg/kg/injection, schedule: Q04DX002 (ip), vehicle: saline with Tween-80 94 % of control | [1] 89 % of control | dose: 50.0 mg/kg/injection, schedule: Q04DX002 (ip), vehicle: saline with Tween-80 94 % of control | [2] 87 % of control | [3] 87 % of control | [4] 89 % of control

COC(=O)C1CC(c2ccccc2)N(C(C)(C)C)O1 (stereo not given)
inactive: dose: 100.0 mg/kg/injection, schedule: Q04DX002 (ip), vehicle: saline with Tween-80 97 % of control | [3] 100 % of control | [4] 100 % of control

O=C1c2ccccc2N(Cc2cccc(F)c2)C2=NCCCC12 (stereo not given)
inactive: [5] 113 % of control | [6] 116 % of control | [7] 100 % of control

O=c1[nH]cnc2ncnn12
inactive: dose: 25.0 mg/kg/injection, schedule: Q01DX009 (ip), vehicle: suspension in saline 97 % of control | dose: 50.0 mg/kg/injection, schedule: Q01DX009 (ip), vehicle: suspension in saline 93 % of control | dose: 200.0 mg/kg/injection, schedule: Q01DX009 (ip), vehicle: suspension in saline 90 % of control

CCN(C=Nc1ccc(Cl)cc1C)CC
inactive: dose: 50.0 mg/kg/injection, schedule: Q01DX009 (ip), vehicle: Klucel (hydroxypropylcellulose) (HPC) 105 % of control | dose: 100.0 mg/kg/injection, schedule: Q01DX009 (ip), vehicle: Klucel (hydroxypropylcellulose) (HPC) 117 % of control

NC(=O)N1C(=O)C=CC1=O
inactive: [5] 92 % of control | [6] 104 % of control

NC(=O)C(Cc1ccc(O)cc1)NC(=O)OCc1ccccc1 (stereo not given)
inactive: [5] 97 % of control | [6] 92 % of control | [7] 97 % of control

C[Si]1(C)O[Si](C)(C)O[Si](C)(C)O[Si](C)(C)O1
inactive: [5] 100 % of control | [6] 97 % of control | [7] 97 % of control

O=c1c(OCc2ccccc2)cccn1Cc1ccccc1
inactive: dose: 25.0 mg/kg/injection, schedule: Q01DX009 (ip), vehicle: distilled water + Tween-80 92 % of control | dose: 50.0 mg/kg/injection, schedule: Q01DX009 (ip), vehicle: distilled water + Tween-80 95 % of control | dose: 100.0 mg/kg/injection, schedule: Q01DX009 (ip), vehicle: distilled water + Tween-80 100 % of control | dose: 200.0 mg/kg/injection, schedule: Q01DX009 (ip), vehicle: distilled water + Tween-80 95 % of control | dose: 400.0 mg/kg/injection, schedule: Q01DX009 (ip), vehicle: distilled water + Tween-80 101 % of control

O=C(O)CC(O)(CC(=O)O)C(=O)O.O=C(O)CC(O)(CC(=O)O)C(=O)O.[O]=[Mo]1[O][Mo](=[O])[O]1
inactive: dose: 25.0 mg/kg/injection, schedule: Q01DX009 (ip), vehicle: saline 93 % of control

O=[N+]([O-])/C=C/c1ccc(Cl)cc1Cl
inactive: dose: 20.0 mg/kg/injection, schedule: Q04DX003 (ip), vehicle: saline with Tween-80 118 % of control | dose: 40.0 mg/kg/injection, schedule: Q04DX003 (ip), vehicle: saline with Tween-80 118 % of control | dose: 80.0 mg/kg/injection, schedule: Q04DX003 (ip), vehicle: saline with Tween-80 118 % of control

C=C1C[C@H](C2OC3OC(C)(C)OC3C2OCc2ccccc2)OC1=O (stereo not given in full)
inactive: [1] 97 % of control | [8] 98 % of control | [2] 100 % of control

N#Cc1c(Cl)nc2sccn12
inactive: dose: 100.0 mg/kg/injection, schedule: Q01DX001 (ip), vehicle: Klucel (hydroxypropylcellulose) (HPC) 95 % of control | dose: 200.0 mg/kg/injection, schedule: Q01DX001 (ip), vehicle: Klucel (hydroxypropylcellulose) (HPC) 103 % of control

Cc1cnc(Sc2ncccc2[N+](=O)[O-])[nH]c1=O
inactive: [5] 107 % of control | [6] 93 % of control | [7] 97 % of control

CCCCONc1ccnc(=O)[nH]1
inactive: dose: 37.5 mg/kg/injection, schedule: Q01DX001 (ip), vehicle: saline 100 % of control | dose: 75.0 mg/kg/injection, schedule: Q01DX001 (ip), vehicle: saline 100 % of control | dose: 150.0 mg/kg/injection, schedule: Q01DX001 (ip), vehicle: saline 107 % of control

NC(=O)C[CH2][Sn]([Cl])([Cl])[CH2]CC(N)=O
inactive: dose: 50.0 mg/kg/injection, schedule: Q01DX005 (ip), vehicle: saline 98 % of control | dose: 100.0 mg/kg/injection, schedule: Q01DX005 (ip), vehicle: saline 98 % of control | dose: 200.0 mg/kg/injection, schedule: Q01DX005 (ip), vehicle: saline 105 % of control

O=C1O/C(=C/c2cc(Cl)c(O)c(Cl)c2)c2ccccc21
inactive: [9] 96 % of control | [10] 99 % of control | [11] 99 % of control

CC(C)=CCC1=CC(=O)C=CC1=O
inactive: dose: 6.25 mg/kg/injection, schedule: Q01DX009 (ip), vehicle: saline with Tween-80 98 % of control | dose: 12.5 mg/kg/injection, schedule: Q01DX009 (ip), vehicle: saline with Tween-80 99 % of control | dose: 25.0 mg/kg/injection, schedule: Q01DX009 (ip), vehicle: saline with Tween-80 107 % of control | [12] 114 % of control

COC(=O)Nc1cn2c(n1)SCC2
inactive: [13] 98 % of control | [14] 95 % of control | [15] 100 % of control

COc1c2c(cc3oc(=O)ccc13)OC(C)(C)C=C2
inactive: dose: 12.0 mg/kg/injection, schedule: Q01DX005 (ip), vehicle: saline with Tween-80 107 % of control | dose: 24.0 mg/kg/injection, schedule: Q01DX005 (ip), vehicle: saline with Tween-80 98 % of control | dose: 48.0 mg/kg/injection, schedule: Q01DX005 (ip), vehicle: saline with Tween-80 105 % of control | dose: 96.0 mg/kg/injection, schedule: Q01DX005 (ip), vehicle: saline with Tween-80 100 % of control

COCC(O)C(NC(=O)CCl)C(=O)O (stereo not given)
inactive: dose: 50.0 mg/kg/injection, schedule: Q01DX009 (ip), vehicle: saline 110 % of control and 97 % of control | dose: 100.0 mg/kg/injection, schedule: Q01DX009 (ip), vehicle: saline 90 % of control and 98 % of control | dose: 200.0 mg/kg/injection, schedule: Q01DX009 (ip), vehicle: saline 95 % of control

Cc1nc(Nc2ccccc2)c2c(C)c(C)[nH]c2n1
inactive: [13] 103 % of control | [14] 102 % of control | [15] 98 % of control

COc1nc2nc(SC(CC(=O)O)C(=O)c3ccc(Cl)cc3)[nH]c2c2ccccc12 (stereo not given)
inactive: [13] 97 % of control | [14] 95 % of control | [15] 92 % of control

CCCCOC1OCN(C2CCCCC2)CC1(C)C (stereo not given)
inactive: [12] 104 % of control and 121 % of control | dose: 400.0 mg/kg/injection, schedule: Q01DX009 (ip), vehicle: saline with Tween-80 120 % of control

CCOC(=O)NC(Cc1cc(OC)c(OC)cc1Br)c1ccc(OC)c(OC)c1 (stereo not given)
inactive: [1] 89 % of control | [8] 89 % of control | [2] 100 % of control

COc1ccc(S(=O)(=O)c2cc(C)c3ccc4ccccc4c3n2)cc1
inactive: [5] 101 % of control | [6] 102 % of control | [7] 98 % of control

Cc1cc(C)c(O)c(CS(=O)(=O)Cc2cc(C)cc(C)c2O)c1
inactive: [9] 101 % of control | [10] 97 % of control | [11] 91 % of control
